The MIC is the least concentration at which growth counts as inhibited. A higher MIC goes with weaker potency.

The values below come from patent US20230124862A1, “BISMUTH THIOL COMPOUNDS AND COMPOSITIONS AND METHODS OF TREATING MICROBIAL CO-INFECTIONS” (Microbion Corporation, priority 2020, published 2023).

In assay [1] the test system is N. gonorrhoeae. The note with it: N. gonorrhoeae MMX 683 (ATCC 49226); cited from earlier work.
Assay [2] relates to lipid synthesis in E. coli ATCC 25922. The assay can be described thus: Macromolecular synthesis assay: lipid synthesis ([3H] glycerol). Type of assay: cell-based, Escherichia coli. To be noted: control drug, concentration not given. The method, then: Chloroform (125 μL) was then added to each reaction and vortexed, followed by the addition of 125 μl dH2O and vortexing. Reactions were centrifuged at 13,000 rpm in a microfuge for 10 min, and then 150 μl of the organic phase was transferred to a scintillation vial and allowed to dry in a fume hood for at least 1 hr.

Assay [3] concerns E. coli ATCC 25922. The assay can be described thus: Broth microdilution MIC (Example 16). Background: In broth dilution the organism is exposed to a series of concentrations in liquid medium.
The subject of assay [4] is RNA synthesis in E. coli ATCC 25922. Type of assay: cell-based, Escherichia coli. The note with it: 8X the MIC.
Assay [5] concerns RNA synthesis in E. coli MMX 121 (K12 tolC mutant). Type of assay: cell-based, Escherichia coli. The note with it: 8X the MIC.

Each structure is given as a SMILES string. ≈ marks a conversion by molar mass, not a printed value. Where two headings read alike, the source gives them in different places.

As to `CO/N=C(\C(=O)N[C@@H]1C(=O)N2C(C(=O)O)=C(CSc3nc(=O)c(=O)[nH]n3C)CS[C@H]12)c1csc(N)n1` [Ceftriaxone], in assay [1], the “CLSI QC range of MIC” value is “(0.004-0.015) μg/mL”.

`Oc1cc(Cl)ccc1Oc1ccc(Cl)cc1Cl` [irgasan]: the “inhibition of lipid synthesis” value in assay [2] is 63.1%. Moreover, the MIC is 0.12 µg/mL (≈ 0.414 µM) in assay [3] (E. coli ATCC 25922, inoculum 1); 0.12 µg/mL (≈ 0.414 µM) in assay [3] (E. coli ATCC 25922, inoculum 2); 0.12 µg/mL (≈ 0.414 µM) in assay [3] (E. coli ATCC 25922, inoculum 3).

As for `CO[C@H]1/C=C/O[C@@]2(C)Oc3c(C)c(O)c4c(O)c(c(/C=N/N5CCN(C)CC5)c(O)c4c3C2=O)NC(=O)/C(C)=C\C=C\[C@H](C)[C@H](O)[C@@H](C)[C@@H](O)[C@@H](C)[C@H](OC(C)=O)[C@@H]1C` [rifampicin], the “inhibition of RNA synthesis” value in assay [4] (initial assay) stood at 88.5%; in assay [4] (repeat assay) it was 89.4%; in assay [5], 91.9%. The minimum inhibitory concentration (MIC) in assay [3] (Escherichia coli, ATCC25922) is 8 µg/mL (≈ 9.72 µM); in assay [3] (Escherichia coli, ATCC25922, E. coli ATCC 25922, inoculum 1), 8 µg/mL (≈ 9.72 µM); in assay [3] (Escherichia coli, ATCC25922, E. coli ATCC 25922, inoculum 2), 8 µg/mL (≈ 9.72 µM).
